Laboratory results: patent US20040115614A1, “Electrophysiology assay methods” (priority 2002, published 2004)
Several values for one entry are separate records, joined by “and”; a condition that tells them apart may be missing. Equal values may be shown once. Read-outs that look alike come from different tables or passages of the source.

Experiments:
[1] = Procedure: The amplitude and rate of the observed depolarization was reduced by the removal of extracellular Na^+ concentration. […] This reduction effect was more pronounced in the absence of extracellular Na^+ and in cells that were not pre-incubated with the compound.
[2] = system: Na^+ channels; type: cell-based, human; details: read-out: Tetrodotoxin IC50
[3] = system: voltage-gated sodium channels; type: cell-based, human

Compound: COc1cc(N)c(Cl)cc1C(=O)NC1CCN(CCCOc2ccc(F)cc2)CC1OC (stereo not shown) [cisapride]
- KCl-induced plasma membrane depolarization [1]: reduced

Compound: NC1=N[C@H](O)[C@H]2[C@H]3O[C@]4(O)O[C@@H]([C@@H](O)[C@@]2(N1)[C@@H]4O)[C@]3(O)CO [TTX, tetrodotoxin]
- IC50 [2]: 9.5 nM and 6.69 nM
- Amplitude (% max) [3]: 24.260 ± 0.290 % max
- Rate (% change/ s) [3]: 0.001 ± 0.001 % change/ s
- effect on voltage-induced depolarizations [3]: blocked the depolarizations in a dose-dependent manner
- voltage-induced changes in plasma membrane potential [3]: completely abolished
- IC50 ([3]; read-out: IC50 for block of voltage-induced depolarizations): ~9 nM

Compound: Clc1ccccc1C(c1ccccc1)(c1ccccc1)n1ccnc1 [Clotrimazole]
- Rate (% change/ s) ([3]; 1 μM, 30 min pre-incubation, 8 V train of 750 μs pulses, 8 pulses per s for 3 s): 0.124 ± 0.024 % change/ s
- Amplitude (% max) ([3]; 1 μM, 30 min pre-incubation, 8 V train, % of maximal depolarization with 50 mM KCl): 33.92 ± 0.320 % max

Compound: Charybdotoxin
- Rate (% change/ s) ([3]; 100 nM, 30 min pre-incubation, 8 V train of 750 μs pulses, 8 pulses per s for 3 s): 0.115 ± 0.013 % change/ s
- Amplitude (% max) ([3]; 100 nM, 30 min pre-incubation, 8 V train, % of maximal depolarization with 50 mM KCl): 34.09 ± 0.326 % max

Compound: COc1ccc(CCN(C)CCCC(C#N)(c2ccc(OC)c(OC)c2)C(C)C)cc1OC (stereo not shown) [Verapamil]
- Amplitude (% max) [3]: 32.84 ± 0.330 % max
- Rate (% change/ s) [3]: 0.141 ± 0.014 % change/ s
